Publication PMC10023679, “Amide-to-ester substitution as a stable alternative to N-methylation for increasing membrane permeability in cyclic peptides” (Nature Communications, 2023)
Each block holds one compound with its values, some of them ahead of it. Non-standard residues stand in square brackets, D forms with d. Residues, ends and D or L forms follow the SMILES beside them. NMeF = CN[C@@H](Cc1ccccc1)C(=O)O; PhLac = O=C(O)[C@@H](O)Cc1ccccc1; Hica(2S) = CC(C)C[C@H](O)C(=O)O; NMeL = CN[C@@H](CC(C)C)C(=O)O; dHica = CC(C)C[C@@H](O)C(=O)O; dNMeL = CN[C@H](CC(C)C)C(=O)O

Key:
in vitro = in vitro ADME
[1] = 1,9-decadiene-water distribution coefficient; type: physicochemical; details: decadiene and aqueous buffer
[2] = Caco-2 assay (permeability across cell monolayers); type: in vitro ADME; details: Caco-2, 1 μM compounds in HBSS (pH 7.4) containing 10 mM HEPES and 1% DMSO, 3 h incubation at 37 °C, read-out: Caco-2 permeability Pa
[3] = Stability in simulated intestinal fluid (SIF); type: in vitro ADME; details: pH 6.8, 37 °C, at 4 h
Experimental: (§1) The stability assay of peptides in SIF was conducted according to United States Pharmacopeia & National Formulary (USP 25-NF 20)[64] and the previous report[65] with some modifications as follows. SIF used in this study was prepared by dissolving pancreatin (1.25 mg/mL) (Sigma, P7545, 8 × USP specifications) in 50 mM phosphate buffer at pH 6.8. The solution was vortexed for 1 min, sonicated for 15 min, centrifuged at 20,000 × g for 10 min, and filtered before use. 57 μL of SIF was incubated at 37 °C for 15 min and 3 μL of 1 μM peptide solution in DMSO was added to the warmed […]. After 1, 2, or 4 h, 60 μL of ice-cold ultra-pure water containing 5% trifluoroacetic acid was added and 120 μL of 30% acetonitrile in ultra-pure water was added. The samples were filtered and injected into UPLC.

[4] = Stability in simulated gastric fluid (SGF); type: in vitro ADME; details: pH 1.2, 37 °C, at 4 h
Experimental: as §1, with “SGF” for “SIF”, “pepsin (3.6” for “pancreatin (1.25”, “P7012, 3357 Unit/mg)” for “P7545, 8 × USP specifications)”, “an aqueous solution of 2 mg/mL sodium chloride (NaCl)” for “50 mM phosphate buffer”, “1.2.” for “6.8.”
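Throughout, for Pe (PAMPA), CP1-Y1F-L2K series: filter plate membrane of 1% soybean lecithin in dodecane, donor and acceptor in 5% DMSO/PBS, incubated at 25 °C, peptide in both compartments measured by LC-MS.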

Compound: CC(C)C[C@@H]1C(=O)N[C@H](C(C)C)C(=O)N[C@H](C)C(=O)N2CCC[C@@H]2C(=O)N[C@H](CC(C)C)C(=O)N[C@H](C(C)C)C(=O)N[C@H](C)C(=O)N2CCC[C@@H]2C(=O)N1C (cyclo([dA][dP][dL][dV][dA][dP][dNMeL][dV]))
Papp at 16 h, 3 μM (in vitro; PAMPA): 0.01 ×10⁻⁶ cm/s

Compound: CC(C)C[C@@H]1C(=O)N[C@H](C(C)C)C(=O)N[C@H](C)C(=O)N2CCC[C@@H]2C(=O)O[C@H](CC(C)C)C(=O)N[C@H](C(C)C)C(=O)N[C@H](C)C(=O)N2CCC[C@@H]2C(=O)N1C (cyclo([dA][dP][dNMeL][dV][dA][dP][dHica][dV]))
Papp at 16 h, 3 μM (in vitro; PAMPA): 0.03 ×10⁻⁶ cm/s

Compound: CC(=O)N[C@@H](Cc1ccccc1)C(=O)O[C@@H](Cc1ccccc1)C(N)=O [D1]
Papp (in vitro; PAMPA, pH 7.4): 1.2 ×10⁻⁶ cm/s
log Ddec/w (1,9-decadiene–water distribution coefficient) [1]: –1.17 ± 0.01

Compound: CC(C)C[C@@H]1NC(=O)[C@H]2CCCN2C(=O)[C@H](CC(C)C)N(C)C(=O)[C@@H](C(C)C)NC(=O)[C@H](CC(C)C)NC(=O)[C@H]2CCCN2C(=O)[C@H](CC(C)C)N(C)C(=O)[C@@H](C(C)C)NC1=O [D8.21, reference compound] (cyclo(L[dV][NMeL][dP]L[dV][NMeL][dP]))
Papp at 16 h, 3 μM (in vitro; PAMPA): 8.2 ×10⁻⁶ cm/s

Compound: CC(C)C[C@@H]1C(=O)N[C@H](C(C)C)C(=O)N[C@H](C)C(=O)N2CCC[C@@H]2C(=O)N(C)[C@H](CC(C)C)C(=O)N[C@H](C(C)C)C(=O)N[C@H](C)C(=O)N2CCC[C@@H]2C(=O)N1C [D8.31, reference compound] (cyclo([dA][dP][dNMeL][dV][dA][dP][dNMeL][dV]))
Papp at 16 h, 3 μM (in vitro; PAMPA): 0.2 ×10⁻⁶ cm/s

Compound: CC(=O)N[C@@H](Cc1ccccc1)C(=O)N(C)[C@@H](Cc1ccccc1)C(N)=O [M1] (Ac-Phe-[NMeF]-NH2)
log Ddec/w (1,9-decadiene–water distribution coefficient) [1]: –1.24 ± 0.01

Compound: CC(=O)N[C@@H](CC(C)C)C(=O)N(C)[C@@H](Cc1ccccc1)C(N)=O [M2] (Ac-Leu-[NMeF]-NH2)
Papp (in vitro; PAMPA, pH 7.4): 0.2 ×10⁻⁶ cm/s
log Ddec/w (1,9-decadiene–water distribution coefficient) [1]: –1.62 ± 0.02

Compound: CC(=O)N[C@@H](CC(C)C)C(=O)N(C)[C@@H](CC(C)C)C(N)=O [M3]
Papp (in vitro; PAMPA, pH 7.4): 0.1 ×10⁻⁶ cm/s
log Ddec/w (1,9-decadiene–water distribution coefficient) [1]: –2.13 ± 0.02

Compound: CC(=O)N[C@@H](Cc1ccccc1)C(=O)N[C@@H](Cc1ccccc1)C(N)=O [P1] (Ac-Phe-Phe-NH2)
log Ddec/w (1,9-decadiene–water distribution coefficient) [1]: –2.75 ± 0.01

Compound: CC[C@H](C)[C@@H]1NC(=O)[C@H](Cc2ccc(O)cc2)NC(=O)[C@@H](N)CSSC[C@@H](C(=O)N2CCC[C@H]2C(=O)N[C@@H](CC(C)C)C(=O)NCC(N)=O)NC(=O)[C@H](CC(N)=O)NC(=O)[C@H](CCC(N)=O)NC1=O [oxytocin, reference compound]
Fraction degraded in SIF ([3]; SIF-containing pancreatin): more than 90%
metabolised at 4 h, 0.05 μM ([3]; simulated intestinal fluid (SIF) containing pancreatin, read-out: Fraction degraded in SIF): 94%

Compound: C[C@H](N)C(=O)NCC(=O)N[C@H]1CSSC[C@@H](C(=O)O)NC(=O)[C@H](CO)NC(=O)[C@H]([C@@H](C)O)NC(=O)[C@H](Cc2ccccc2)NC(=O)[C@H]([C@@H](C)O)NC(=O)[C@H](CCCCN)NC(=O)[C@H](Cc2c[nH]c3ccccc23)NC(=O)[C@H](Cc2ccccc2)NC(=O)[C@H](Cc2ccccc2)NC(=O)[C@H](CC(N)=O)NC(=O)[C@H](CCCCN)NC1=O [somatostatin, reference compound]
Fraction degraded in SGF ([4]; SGF-containing pepsin): more than 90%
metabolised at 4 h, 0.05 μM ([4]; simulated gastric fluid (SGF) containing pepsin, read-out: Fraction degraded in SGF): 98%

Other lines, results leading:

Papp at 16 h, 3 μM (in vitro; PAMPA): 0.1 ×10⁻⁶ cm/s
Compound: CC(C)C[C@@H]1NC(=O)[C@H](CC(C)C)N(C)C(=O)[C@@H](C(C)C)NC(=O)[C@H](C)NC(=O)[C@H](C)NC(=O)[C@H]2CCCN2C(=O)[C@@H](CC(C)C)NC(=O)[C@@H]2CCCN2C(=O)[C@H](CC(C)C)NC1=O (relative stereo)

Papp at 16 h, 3 μM (in vitro; PAMPA): 1.1 ×10⁻⁶ cm/s
Compound: CC(C)C[C@@H]1NC(=O)[C@H](CC(C)C)N(C)C(=O)[C@@H](C(C)C)NC(=O)[C@H](C)NC(=O)[C@H](C)OC(=O)[C@H]2CCCN2C(=O)[C@@H](CC(C)C)NC(=O)[C@@H]2CCCN2C(=O)[C@H](CC(C)C)NC1=O (relative stereo)

Papp (in vitro; PAMPA): < 0.00075 ×10⁻⁶ cm/s
Compound: CC(C)C[C@@H]1NC(=O)[C@@H](CC(C)C)NC(=O)[C@H](CCCCN)NC(=O)[C@H](Cc2ccccc2)N(C)C(=O)[C@H]2CCCN2C(=O)[C@H](CC(C)C)NC1=O [CP1-Y1F-L2K NMe] (cyclo(K[dL]LL[dP][NMeF]))

Pe (PAMPA), CP1-Y1F-L2K series (in vitro): 4.9 ×10⁻⁶ cm/s
Papp (in vitro; PAMPA): 0.0049 ×10⁻⁶ cm/s
Compound: CC(C)C[C@@H]1NC(=O)[C@@H](CC(C)C)NC(=O)[C@H](CCCCN)NC(=O)[C@H](Cc2ccccc2)OC(=O)[C@H]2CCCN2C(=O)[C@H](CC(C)C)NC1=O [CP1-Y1F-L2K O] (cyclo(K[dL]LL[dP][PhLac]))

Papp (in vitro; PAMPA): < 0.0007 ×10⁻⁶ cm/s
Compound: CC(C)C[C@@H]1NC(=O)[C@@H](CC(C)C)NC(=O)[C@H](CCCCN)NC(=O)[C@H](Cc2ccccc2)NC(=O)[C@H]2CCCN2C(=O)[C@H](CC(C)C)NC1=O [CP1-Y1F-L2K] (cyclo(FK[dL]LL[dP]))

Papp (in vitro; PAMPA): 0.5 ×10⁻⁶ cm/s
Compound: CC(C)C[C@@H]1NC(=O)[C@@H](CC(C)C)NC(=O)[C@H](CO)NC(=O)[C@H](Cc2ccccc2)N(C)C(=O)[C@H]2CCCN2C(=O)[C@H](CC(C)C)NC1=O [CP1-Y1F-L2S NMe] (cyclo(LL[dP][NMeF]S[dL]))

Papp (in vitro; PAMPA): 4.1 ×10⁻⁶ cm/s
Compound: CC(C)C[C@@H]1NC(=O)[C@@H](CC(C)C)NC(=O)[C@H](CO)NC(=O)[C@H](Cc2ccccc2)OC(=O)[C@H]2CCCN2C(=O)[C@H](CC(C)C)NC1=O [CP1-Y1F-L2S O] (cyclo(LL[dP][PhLac]S[dL]))

Papp (in vitro; PAMPA): 0.3 ×10⁻⁶ cm/s
Compound: CC(C)C[C@@H]1NC(=O)[C@@H](CC(C)C)NC(=O)[C@H](CO)NC(=O)[C@H](Cc2ccccc2)NC(=O)[C@H]2CCCN2C(=O)[C@H](CC(C)C)NC1=O [CP1-Y1F-L2S] (cyclo(FS[dL]LL[dP]))

Papp at 16 h, 3 μM (in vitro; PAMPA): 1.6 ×10⁻⁶ cm/s
Compound: CC(C)C[C@@H]1NC(=O)[C@H]2CCCN2C(=O)[C@H](CC(C)C)NC(=O)[C@@H](C(C)C)NC(=O)[C@H](CC(C)C)NC(=O)[C@H]2CCCN2C(=O)[C@H](CC(C)C)N(C)C(=O)[C@@H](C(C)C)NC1=O [D8.21-amide] (cyclo(L[dP]L[dV][NMeL][dP]L[dV]))

Papp at 16 h, 3 μM (in vitro; PAMPA): 5.8 ×10⁻⁶ cm/s
Compound: CC(C)C[C@@H]1NC(=O)[C@H]2CCCN2C(=O)[C@H](CC(C)C)OC(=O)[C@@H](C(C)C)NC(=O)[C@H](CC(C)C)NC(=O)[C@H]2CCCN2C(=O)[C@H](CC(C)C)N(C)C(=O)[C@@H](C(C)C)NC1=O [D8.21-ester] (cyclo(L[dV][NMeL][dP]L[dV][Hica(2S)][dP]))

Papp [2]: 0.2 ×10⁻⁶ cm/s
Papp (in vitro; PAMPA): 1.3 ×10⁻⁶ cm/s
Compound: CC(C)C[C@@H]1NC(=O)[C@@H](CC(C)C)OC(=O)[C@H](CC(C)C)NC(=O)[C@H](Cc2ccc(O)cc2)NC(=O)[C@H]2CCCN2C(=O)[C@H](CC(C)C)NC1=O [DP3] (cyclo(LL[dP]YL[dHica]))

Papp [2]: 1.2 ×10⁻⁶ cm/s
Papp (in vitro; PAMPA): 4.2 ×10⁻⁶ cm/s
Compound: CC(C)C[C@@H]1NC(=O)[C@H](Cc2ccc(O)cc2)NC(=O)[C@H]2CCCN2C(=O)[C@H](CC(C)C)NC(=O)[C@H](CC(C)C)OC(=O)[C@@H](CC(C)C)NC1=O [DP4] (cyclo(L[dL][Hica(2S)]L[dP]Y))

Papp [2]: 2.8 ×10⁻⁶ cm/s
Papp (in vitro; PAMPA): 4.4 ×10⁻⁶ cm/s
Compound: CC(C)C[C@@H]1NC(=O)[C@H](Cc2ccc(O)cc2)NC(=O)[C@H]2CCCN2C(=O)[C@H](CC(C)C)OC(=O)[C@H](CC(C)C)NC(=O)[C@@H](CC(C)C)NC1=O [DP5] (cyclo(L[dL]L[Hica(2S)][dP]Y))

Papp [2]: 0.3 ×10⁻⁶ cm/s
Papp (in vitro; PAMPA): 1 ×10⁻⁶ cm/s
Compound: CC(C)C[C@@H]1NC(=O)[C@@H](CC(C)C)NC(=O)[C@H](CC(C)C)N(C)C(=O)[C@H](Cc2ccc(O)cc2)NC(=O)[C@H]2CCCN2C(=O)[C@H](CC(C)C)NC1=O [MP2] (cyclo(LL[dP]Y[NMeL][dL]))

Papp at 3 h, 1 μM ([2]; human): 0.2 ×10⁻⁶ cm/s
Papp at 16 h, 2 μM (in vitro; PAMPA): 0.6 ×10⁻⁶ cm/s
Compound: CC(C)C[C@@H]1NC(=O)[C@@H](CC(C)C)N(C)C(=O)[C@H](CC(C)C)NC(=O)[C@H](Cc2ccc(O)cc2)NC(=O)[C@H]2CCCN2C(=O)[C@H](CC(C)C)NC1=O [MP3] (cyclo(LL[dP]YL[dNMeL]))

Papp [2]: 0.5 ×10⁻⁶ cm/s
Papp (in vitro; PAMPA): 2.5 ×10⁻⁶ cm/s
Compound: CC(C)C[C@@H]1NC(=O)[C@H](Cc2ccc(O)cc2)NC(=O)[C@H]2CCCN2C(=O)[C@H](CC(C)C)NC(=O)[C@H](CC(C)C)N(C)C(=O)[C@@H](CC(C)C)NC1=O [MP4] (cyclo(L[dL][NMeL]L[dP]Y))

Papp [2]: 1.2 ×10⁻⁶ cm/s
Papp (in vitro; PAMPA): 1.7 ×10⁻⁶ cm/s
Compound: CC(C)C[C@@H]1NC(=O)[C@H](Cc2ccc(O)cc2)NC(=O)[C@H]2CCCN2C(=O)[C@H](CC(C)C)N(C)C(=O)[C@H](CC(C)C)NC(=O)[C@@H](CC(C)C)NC1=O [MP5] (cyclo(L[NMeL][dP]YL[dL]))
